{"source": "patent US8680076B2", "about": "“Methods of treatment, improvement and prevention using haloaryl substituted aminopurines” (Signal Pharmaceuticals, LLC, priority 2010, dated 2014)", "key": {"[1]": {"tested_on": "CD-IGS rats", "assay": "Rat model of excisional wound healing", "type": "in vivo", "method": "Male CD-IGS rats (Strain code 001; n=32-52 per experiment) were obtained from Charles River Laboratories at a body weight of 175-195 g. Rats were housed in regular shoebox cages and allowed to become acclimated for a minimum of 1 week. Rats were fed Harlan Teklad (No. 7001) 4% mouse/rat diet and water ad libitum and were maintained on a 12-hour light/dark cycle.\nSuspensions of Compound JNKi-1 were prepared in aqueous 0.5% CMC and 0.25% Tween-80. The formulations were homogenized using a TEFLON® pestle and mortar (Potter-Elvehjem tissue grinder). Vehicle (aqueous solution of 0.5% carboxymethylcellulose, and 0.25% Tween-80) and test article compounds were dosed at a volume of 5 mL/kg. Groups of rats (n=4-8/group) were dosed orally with vehicle, Dexamethasone (0.5 mg/kg) or Compound JNKi-1 (10 mg/kg, 30 mg/kg or 60 mg/kg) daily throughout the study starting 4 days prior to the procedure and continuing for up to […]. Compound JNKi-1 treated groups and the respective vehicle control group were dosed twice daily (bid) with an 8 hr separation between the doses. Dexamethasone treated animals and the respective vehicle control group were dosed once daily (qd) for the duration of the study.\nRats were anesthetized by inhaled isoflurane and the dorsal area was shaved and swabbed with 70% alcohol. Two points were marked 5.5 and 8.5 cm from the base of the skull along the midline. Four further points were marked 1 cm at either side of the midline, two at each of the marked points. These delineated the centers of four excisional wounds. The biopsy punch (6 mm diameter) was aligned vertically over the center of a mark and the epidermis, dermis and panniculus carnosus pierced by applying pressure and twisting at the same time. The skin plug was then removed. This was repeated for the remaining wounds (FIG. 15). The animal was then allowed to recover. All animals were housed singly during the experiment. Rats were monitored twice a day for the first 24 hours following the procedure and then daily until the end of the study. Body weights were recorded two or three times per week. Animals were sacrificed via CO2 asphyxiation at various time-points (day 1, 5, 10 or 14) following wounding.\nEach wound size was measured using an electronic digital caliper and the percent of wound remaining open was calculated relative to the initial wound size recorded on day 0 (day of wounding procedure). Four values were averaged for each animal (four wounds on each rat). Measurements were taken at different time-points throughout the study.\nWounds and 2 mm of surrounding tissue were excised using an 8 mm biopsy punch. Wounds were harvested on days 1, 5, 10 and 14 following the procedure. Tissues were fixed in neutral buffered formalin for 3 h then transferred to 100% ethanol. Tissues were paraffin-embedded and four μm cross sections were cut and mounted on poly-lysine slides and stored in slide boxes at room temperature.\nOne slide for each specimen was stained for H&E to assess granulation-tissue formation and re-epithelialization of the wound gap.\nSamples collected on day 10 and 14 were stained with Trichrome Stain (Masson) Kit (Sigma, HT15) to evaluate collagen deposition and remodeling.\nTissue sections were deparaffinized and hydrated to deionized (DI) water. Sections were incubated in preheated Bouin' Solution (Sigma, HT10-132) at 56° C. overnight and then thoroughly rinsed in tap water. Sections were stained in Weigert's Iron Hematoxylin solution (Sigma, HT10-79) for 15 min, washed, and counterstained with Biebrich Scarlet Acid Fuchsin solution. After washing, sections were incubated with Phosphotungstic-Phosphomolybdic acid solution for 15 min and then stained with Aniline Blue solution. Sections were dehydrated and cleared in xylene.\nWound healing was evaluated on day 10 and day 14 after the procedure. H&E sections were scored for re-epithelialization using the following criteria: […]"}, "[2]": {"tested_on": "SKH-1 mice epidermis", "assay": "UVB-induced apoptosis (TUNEL) in skin of SKH-1 mice", "type": "in vivo, mouse", "conditions": "75 mg/kg PO BID for 5 days before UVB 0.5 J/cm^2, vs vehicle", "excerpt": "Ultraviolet B (UVB) light is known to induce breaks in DNA (nicks) that can trigger the process of apoptosis, and these nicks can be labeled and visualized with terminal deoxynucleotidyl transferase dUTP nick end labeling (TUNEL). TUNEL technology identifies DNA breaks by labeling free 3′-OH terminals with modified (fluorescing) nucleotides in an enzymatic reaction that makes the damaged apoptotic cells fluoresce. This study was one of a series of pharmacology studies designed to determine the effects of the JNK inhibitor, Compound JNKi-1, on UVB-induced apoptosis in the skin of mice.\nFemale SKH-1 mice (Charles River, n=17 total) were obtained at a body weight of 15 g to 20 g. Mice were housed in regular shoebox cages and allowed to become acclimated for a minimum of 1 week. Mice were fed Harlan Teklad (No. 7001) 4% mouse/rat diet and water ad libitum and were maintained on a 12-hour light/dark cycle. […]\nA Leica microscope with a CoolSNAP digital camera was used to obtain 5 random 20× magnification fluorescent images from five sections of skin epidermis and the number of TUNEL-positive green cells was counted to determine the average number of cells per animal and group (n=5).\nStatistical one-way analysis of variance (ANOVA) was performed followed by Bonferroni's multiple comparison test (Graph Pad Prism). The data were expressed as mean±standard error of the mean (SEM)."}, "[3]": {"conditions": "60 mg/kg bid, Studies A and B combined"}}, "note": "Entries after “also recorded” stand apart in the source; their conditions may differ."}
{"smiles": "O[C@H]1CC[C@H](Nc2ncc3nc(Nc4c(F)cc(F)cc4F)n([C@H]4CCOC4)c3n2)CC1", "note": "[JNKi-1, 4-((9-((3S)-tetrahydro-3-furanyl)-8-((2,4,6-trifluorophenyl)amino)-9H-purin-2-yl)amino)-trans-cyclohexanol]", "values": [{"measurement": "wound healing (wound size) in words", "setting": "[1]; 60 mg/kg b.i.d", "result": "delay in wound healing was observed"}, {"measurement": "delay in wound healing", "setting": "[1]; 60 mg/kg b.i.d, n=3 studies", "result": 27, "unit": "%"}, {"measurement": "healing at day 14", "setting": "[1]; 60 mg/kg bid", "result": "fully healed"}, {"measurement": "rats completely healed by day 10 (healing score)", "setting": "[1]; [3]", "result": "5 out of 14"}, {"measurement": "rats with both incomplete re-epithelialization and collagen remodeling at day 10", "setting": "[1]; [3]", "result": 3, "unit": "rats"}, {"measurement": "rats with incomplete new epidermis at day 10", "setting": "[1]; [3]", "result": "two"}, {"measurement": "rats with only partial collagen remodeling at day 10", "setting": "[1]; [3]", "result": 4, "unit": "rats"}, {"measurement": "neutrophils recruited into the wounds (MPO IHC) versus controls", "setting": "[1]; 60 mg/kg, day 1 post wounding", "result": "did not affect inflammatory cell infiltration; also recorded: comparable"}, {"measurement": "myofibroblast migration into the wound gap (α-SMA IHC)", "setting": "[1]; 60 mg/kg, day 5 post wounding", "result": "reduced myofibroblast migration; also recorded: few myofibroblasts migrating at the wound edges"}, {"measurement": "wound size versus vehicle", "setting": "[1]; 30 or 10 mg/kg bid", "result": "no difference"}, {"measurement": "healing score versus vehicle control, day 10", "setting": "[1]; Study C, 10 mg/kg", "result": "No significant effect"}, {"measurement": "rats with both incomplete re-epithelialization and collagen remodeling", "setting": "[1]; Study C, 30 mg/kg, day 10", "result": "5 out of 8"}, {"measurement": "rats completely healed by day 10", "setting": "[1]; Study C, 60 mg/kg", "result": "None"}, {"measurement": "healing score versus vehicle control, day 10", "setting": "[1]; Study C, 60 and 30 mg/kg", "result": "significant delay in healing"}, {"measurement": "time of complete skin repair post wounding", "setting": "[1]; all treated groups", "result": "≤ 14", "unit": "days"}, {"measurement": "number of TUNEL-positive cells in epidermis 24 hr post UV exposure", "setting": "[2]", "result": "can inhibit apoptotic cell death; also recorded: significantly (p<0.01) decreased"}]}
